From PubChem BioAssay AID328 (DTP/NCI, 2004) come the findings set out here.

For the test, the system named is BDF1 mice, P388 leukemia ip, median survival T/C. Kind of test: NCI In Vivo Anticancer Drug Screen. Data for tumor model P388 Leukemia (intraperitoneal) in B6D2F1 (BDF1) mice. As to conditions: endpoint: median survival time, higher = longer survival. A digest of the protocol: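 Steps: implant the tumour, treat one group with compound and another with vehicle, record survival, then divide treated by control.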

Setting [1] is: dose: 100.0 mg/kg/injection, schedule: Q01DX009 (ip), vehicle: Klucel (hydroxypropylcellulose) (HPC).
Where [2] appears, read: dose: 200.0 mg/kg/injection, schedule: Q01DX009 (ip), vehicle: Klucel (hydroxypropylcellulose) (HPC).
Where [3] appears, read: dose: 400.0 mg/kg/injection, schedule: Q01DX009 (ip), vehicle: Klucel (hydroxypropylcellulose) (HPC).
Setting [4] is: dose: 50.0 mg/kg/injection, schedule: Q01DX009 (ip), vehicle: saline with Tween-80.
Setting [5] is: dose: 100.0 mg/kg/injection, schedule: Q01DX009 (ip), vehicle: saline with Tween-80.
Where [6] appears, read: dose: 200.0 mg/kg/injection, schedule: Q01DX009 (ip), vehicle: saline with Tween-80.
[7] abbreviates: dose: 100.0 mg/kg/injection, schedule: Q04DX003 (ip), vehicle: Klucel (hydroxypropylcellulose) (HPC).
[8] abbreviates: dose: 200.0 mg/kg/injection, schedule: Q04DX003 (ip), vehicle: Klucel (hydroxypropylcellulose) (HPC).
The mark [9] stands for this setting: dose: 400.0 mg/kg/injection, schedule: Q04DX003 (ip), vehicle: Klucel (hydroxypropylcellulose) (HPC).
Where [10] appears, read: dose: 25.0 mg/kg/injection, schedule: Q01DX009 (ip), vehicle: saline with Tween-80.

Values joined by “and” are separate entries in the source; they are usually repeats but may differ in a detail not shown here. Equal entries are not always repeated. Inconclusive results and toxic doses are left out.

As to `O=c1[nH]c(=O)n(C2CC(O)C(CO)O2)cc1F` (stereo not given), the T/C runs as follows: (dose: 5.0 mg/kg/injection, schedule: Q01DX010 (ip), vehicle: saline) 113 % of control; (dose: 15.0 mg/kg/injection, schedule: Q03HX024 (ip), vehicle: saline) 172 % of control; (dose: 22.0 mg/kg/injection, schedule: Q03HX024 (ip), vehicle: saline) 186 % of control; (dose: 25.0 mg/kg/injection, schedule: Q01DX009 (ip), vehicle: saline) 186 % of control; (dose: 33.0 mg/kg/injection, schedule: Q01DX009 (ip), vehicle: saline) 173 % of control; (dose: 34.0 mg/kg/injection, schedule: Q03HX024 (ip), vehicle: saline) 200 % of control. Besides, the T/C was 168 % of control and 172 % of control and 200 % of control (dose: 40.0 mg/kg/injection, schedule: Q01DX009 (ip), vehicle: water); 166 % of control (dose: 44.0 mg/kg/injection, schedule: Q01DX009 (ip), vehicle: saline); 202 % of control (dose: 49.0 mg/kg/injection, schedule: Q01DX009 (ip), vehicle: saline); 218 % of control (dose: 50.0 mg/kg/injection, schedule: Q01DX009 (ip), vehicle: saline); 215 % of control (dose: 50.0 mg/kg/injection, schedule: Q03HX024 (ip), vehicle: saline); 190 % of control (2×) and 195 % of control (dose: 60.0 mg/kg/injection, schedule: Q01DX009 (ip), vehicle: water). Besides, the T/C was 185 % of control (dose: 67.0 mg/kg/injection, schedule: Q01DX009 (ip), vehicle: saline); 202 % of control (dose: 73.0 mg/kg/injection, schedule: Q01DX009 (ip), vehicle: saline); 169 % of control and 183 % of control and 186 % of control (dose: 74.0 mg/kg/injection, schedule: Q01DX009 (ip), vehicle: saline); 190 % of control and 200 % of control and 222 % of control (dose: 80.0 mg/kg/injection, schedule: Q01DX009 (ip), vehicle: water); 109 % of control and 206 % of control (dose: 100.0 mg/kg/injection, schedule: Q01DX009 (ip), vehicle: saline); 157 % of control (dose: 155.0 mg/kg/injection, schedule: Q04DX004 (ip), vehicle: saline). Further, the T/C is 109 % of control (dose: 165.0 mg/kg/injection, schedule: Q01DX009 (ip), vehicle: saline); 124 % of control (dose: 205.0 mg/kg/injection, schedule: Q01DX001 (ip), vehicle: saline); 170 % of control (dose: 233.0 mg/kg/injection, schedule: Q04DX004 (ip), vehicle: saline); 190 % of control (dose: 350.0 mg/kg/injection, schedule: Q04DX004 (ip), vehicle: saline); 110 % of control (dose: 525.0 mg/kg/injection, schedule: Q04DX004 (ip), vehicle: saline); 157 % of control (dose: 685.0 mg/kg/injection, schedule: Q01DX001 (ip), vehicle: saline). For the setting “dose: 1025.0 mg/kg/injection, schedule: Q01DX001 (ip), vehicle: saline”, the T/C was 172 % of control.

As to `CCOC(=O)C1CCCN1C(=O)c1c2nc3c(C(=O)N4CCCC4C(=O)OCC)ccc(C)c3oc-2c(C)c(=O)c1N` (stereo not given), the T/C was 90 % of control (dose: 100.0 mg/kg/injection, schedule: Q04DX002 (ip), vehicle: saline with Tween-80); 101 % of control (dose: 200.0 mg/kg/injection, schedule: Q04DX002 (ip), vehicle: saline with Tween-80); 90 % of control (dose: 400.0 mg/kg/injection, schedule: Q04DX002 (ip), vehicle: saline with Tween-80).

On to `CCC(C)C(C)(COC(N)=O)COC(N)=O` (stereo not given), for which the T/C by setting is: under setting [1], 90 % of control; under setting [2], 86 % of control; under setting [3], 95 % of control.

Regarding `CCOC1CCC(C(C)=O)C(C#N)(C#N)C1(C#N)C#N` (stereo not given), the T/C is, setting by setting: (dose: 6.25 mg/kg/injection, schedule: Q01DX001 (ip), vehicle: saline with Tween-80) 108 % of control; (dose: 12.5 mg/kg/injection, schedule: Q01DX001 (ip), vehicle: saline with Tween-80) 123 % of control; (dose: 25.0 mg/kg/injection, schedule: Q01DX001 (ip), vehicle: saline with Tween-80) 110 % of control and 119 % of control; (dose: 50.0 mg/kg/injection, schedule: Q01DX001 (ip), vehicle: saline with Tween-80) 124 % of control.

Turning to `Cc1ccc(S(=O)(=O)NC(=O)Oc2nc3cc(Cl)ccc3o2)cc1`, the T/C under setting [4] is 99 % of control, the T/C under setting [5] is 114 % of control and the T/C under setting [6] was 96 % of control.

Regarding `Cc1ccc(C(=O)CO)cc1`, the T/C is, setting by setting: under setting [4], 98 % of control; under setting [5], 102 % of control; under setting [6], 98 % of control.

With `c1ccc(/C(=N\Nc2nc3ccccc3s2)c2ccncc2)cc1`, the T/C under setting [1] is 104 % of control; the T/C under setting [7] was 100 % of control; the T/C under setting [2] was 95 % of control; the T/C under setting [8] was 105 % of control; the T/C under setting [3] is 100 % of control; the T/C under setting [9] was 105 % of control.

Regarding `CCCCCCCCCCC(CCCCCCCCCC)CCCCCCCCC(CCCCCCCCCC)CCCCCCCCCC`, the T/C is 108 % of control under setting [7], 93 % of control under setting [8] and 97 % of control under setting [9].

As for `COC1=C[C@H](C)[C@H]2C[C@@H]3OC(=O)CC[C@@H]3C[C@]2(C)C1=O`, the T/C is, setting by setting: (dose: 2.0 mg/kg/injection, schedule: Q01DX009 (ip), vehicle: saline + alcohol) 115 % of control; (dose: 4.0 mg/kg/injection, schedule: Q01DX009 (ip), vehicle: saline + alcohol) 106 % of control; (dose: 8.0 mg/kg/injection, schedule: Q01DX009 (ip), vehicle: saline + alcohol) 106 % of control; (dose: 16.0 mg/kg/injection, schedule: Q01DX009 (ip), vehicle: saline + alcohol) 103 % of control.

Regarding `NC(N)=NC(N)=Nc1ccc([As](=O)(O)O)c(O)c1`, the T/C is 156 % of control (dose: 44.0 mg/kg/injection, schedule: Q01DX009 (ip), vehicle: Klucel (hydroxypropylcellulose) (HPC)); 156 % of control (dose: 66.0 mg/kg/injection, schedule: Q01DX009 (ip), vehicle: Klucel (hydroxypropylcellulose) (HPC)); 169 % of control under setting [1]; 169 % of control (dose: 150.0 mg/kg/injection, schedule: Q01DX009 (ip), vehicle: Klucel (hydroxypropylcellulose) (HPC)); 155 % of control (dose: 150.0 mg/kg/injection, schedule: Q01DX009 (ip), vehicle: saline).

With `CC1(C(=O)O)CCC2(C)CCC3(C)C(=CC(=O)C4C5(C)CCC(OC6OC(C(=O)O)C(O)C(O)C6OC6OC(C(=O)O)C(O)C(O)C6O)C(C)(C)C5CCC43C)C2C1` (stereo not given), the T/C is, setting by setting: (dose: 100.0 mg/kg/injection, schedule: Q04DX003 (ip), vehicle: alcohol) 104 % of control; (dose: 200.0 mg/kg/injection, schedule: Q04DX003 (ip), vehicle: alcohol) 104 % of control; (dose: 400.0 mg/kg/injection, schedule: Q04DX003 (ip), vehicle: alcohol) 90 % of control.

With `Oc1ccc(Cl)cc1Br`, the T/C reads like this: under setting [10], 110 % of control; under setting [4], 115 % of control; under setting [5], 110 % of control.

For `CCCCCC(C1=NC(C)(C)CC(C)O1)c1ccccc1` (stereo not given), the T/C was 100 % of control (dose: 50.0 mg/kg/injection, schedule: Q04DX003 (ip), vehicle: saline sonified); 100 % of control (dose: 100.0 mg/kg/injection, schedule: Q04DX003 (ip), vehicle: saline sonified); 100 % of control (dose: 200.0 mg/kg/injection, schedule: Q04DX003 (ip), vehicle: saline sonified).

As to `NC(=O)NN=C1CCC(c2ccccc2)CC1` (stereo not given), the T/C is 112 % of control under setting [4] and 112 % of control under setting [5].

Turning to `N#CCC(C#N)N1CCOCC1` (stereo not given), the T/C is 111 % of control (dose: 6.25 mg/kg/injection, schedule: Q01DX009 (ip), vehicle: saline with Tween-80); 96 % of control (dose: 12.5 mg/kg/injection, schedule: Q01DX009 (ip), vehicle: saline with Tween-80); 88 % of control under setting [10]; 104 % of control (dose: 50.0 mg/kg/injection, schedule: Q04DX003 (ip), vehicle: saline with Tween-80); 108 % of control (dose: 100.0 mg/kg/injection, schedule: Q04DX003 (ip), vehicle: saline with Tween-80).

Turning to `CC(/C=N/N=C(N)N)=N\NC(N)=S`, the T/C runs as follows: under setting [4], 96 % of control; under setting [5], 116 % of control; under setting [6], 107 % of control.

Regarding `Nc1nc(-c2c[nH]c(=O)[nH]c2=O)cs1`, the T/C runs as follows: under setting [4], 103 % of control; under setting [5], 98 % of control.
